# Data from patent US9480740B2, “Synthetic glucopyranosyl lipid adjuvants” (priority 2009, dated 2016).
# Key:
# [1] = system: ID83 antigen (Mycobacterium tuberculosis antigenic polypeptide)-specific IFN-γ secreting splenocytes; assay: ELISPOT of IFN-γ cytokine responses of splenocytes from mice vaccinated with ID83 antigen plus adjuvant; format: in vivo, Mice (C57BL/6)
# TLR2 and TLR6 = molecular target: T1, TLR2 and TLR6 (Homo sapiens, UniProt O60603+Q9Y2C9); assay: NF-kB reporter (secreted alkaline phosphatase, QUANTIBlue) assay in HEK 293 cells expressing TLR2 and TLR6; format: cell-based; details: HEK 293 cells with TLR2, TLR6 and NF-kB reporter
# T1 construct: host or cells: HEK 293
# Procedure: (§1) Compound IX was tested in vitro using HEK 293 cells (InvivoGen) with expression vectors encoding 1) TLR4, MD-2, and CD14, or 2) TLR2 and TLR6 to define compound activity and dependence on TLR4, and to exclude activation of TLR2. These HEK 293 cell lines were further stably transfected with the NF-kB reporter vector pNifty-2 such that alkaline phosphatase is secreted into the growth media upon activation of the TLR signaling pathway. Transfected cell lines were plated at 5×10^4 cells per well in a 96-well plates and stimulated for 16-24 hours cultured in medium containing serial dilutions of Compound IX and other adjuvants. Secreted alkaline phosphatase activity was measured in the culture media using QUANTIBlue® assay (InvivoGen). The data was measured as enhancement of NF-kB above the PBS negative control. […] Compound IX was designed based on structural considerations of the reported atomic structure of MD2 and TLR4. […] Thus, it is expected that Compound IX and other illustrative compounds of the invention can be safely administered over a broad range of concentrations, which is highly desirable in the context of reproducibility of clinical outcomes among patients and for the safety in ranging a dose for adults and children. […]
# TLR4, MD-2, and CD14 = molecular target: T2, TLR4, MD-2, and CD14 (Homo sapiens, UniProt O00206+Q9Y6Y9); assay: NF-kB reporter (secreted alkaline phosphatase, QUANTIBlue) assay in HEK 293 cells expressing TLR4, MD-2 and CD14; format: cell-based
# T2 construct: host or cells: HEK 293
# Procedure: as §1
# human whole blood cells = assay: Induction of immunostimulatory cytokines (MIP-1-α and TNF-α ELISA) in human whole blood; format: cell-based; details: human whole blood from two donors, 1:5 serial dilutions, 20 hour incubation
# Procedure: In this example, human whole blood cells were stimulated with Compound IX and ELISA assays were performed to detect the induction of immunostimulatory cytokines. Serial dilutions (1:5) of Compound IX and other adjuvants were performed with phosphate buffered saline in a 96 well plate for a total of 7 dilutions. 100 μl of freshly drawn human blood from two different donors were mixed and incubated with 100 μl of adjuvant dilutions. Following a 20 hour incubation, plates were centrifuged and supernatants (˜70 μl) were collected, avoiding red blood cells, and stored at −20° C. prior performing MIP-1-α and TNF-α ELISAs using standard biochemical procedures. […] Additionally, these primary donor results mimicked the results seen in human cell lines and extend these important findings in relation to the possible dose ranges and safety profiles for this compound.
# T2 sequence (O00206 24-839): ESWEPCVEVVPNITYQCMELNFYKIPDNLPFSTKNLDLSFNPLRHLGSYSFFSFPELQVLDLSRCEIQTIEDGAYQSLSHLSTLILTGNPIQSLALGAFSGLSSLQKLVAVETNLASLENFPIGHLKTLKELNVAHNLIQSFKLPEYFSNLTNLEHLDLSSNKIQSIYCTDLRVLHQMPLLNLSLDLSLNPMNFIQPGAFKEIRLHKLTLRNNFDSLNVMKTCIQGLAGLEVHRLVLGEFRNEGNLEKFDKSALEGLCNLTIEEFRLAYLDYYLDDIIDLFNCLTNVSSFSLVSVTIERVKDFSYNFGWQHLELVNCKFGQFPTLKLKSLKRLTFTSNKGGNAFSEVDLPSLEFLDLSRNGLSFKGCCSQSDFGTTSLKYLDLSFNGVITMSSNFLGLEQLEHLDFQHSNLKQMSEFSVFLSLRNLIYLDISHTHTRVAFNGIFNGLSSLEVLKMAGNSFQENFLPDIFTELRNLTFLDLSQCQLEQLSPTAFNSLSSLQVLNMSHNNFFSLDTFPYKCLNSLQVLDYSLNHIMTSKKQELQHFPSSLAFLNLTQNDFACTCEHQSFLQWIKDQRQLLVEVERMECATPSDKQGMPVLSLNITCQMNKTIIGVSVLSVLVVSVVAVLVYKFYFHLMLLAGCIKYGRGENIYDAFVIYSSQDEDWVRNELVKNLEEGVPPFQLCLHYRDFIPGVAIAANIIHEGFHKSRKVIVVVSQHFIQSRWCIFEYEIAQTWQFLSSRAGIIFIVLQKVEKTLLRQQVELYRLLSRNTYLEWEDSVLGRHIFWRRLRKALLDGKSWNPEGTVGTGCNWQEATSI
# T2 sequence (Q9Y6Y9 17-160 limits assumed): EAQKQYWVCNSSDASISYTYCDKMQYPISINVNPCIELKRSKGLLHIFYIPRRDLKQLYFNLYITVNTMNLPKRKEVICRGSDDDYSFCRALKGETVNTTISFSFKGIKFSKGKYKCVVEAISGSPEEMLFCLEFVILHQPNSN
# T1 sequence (O60603 21-784): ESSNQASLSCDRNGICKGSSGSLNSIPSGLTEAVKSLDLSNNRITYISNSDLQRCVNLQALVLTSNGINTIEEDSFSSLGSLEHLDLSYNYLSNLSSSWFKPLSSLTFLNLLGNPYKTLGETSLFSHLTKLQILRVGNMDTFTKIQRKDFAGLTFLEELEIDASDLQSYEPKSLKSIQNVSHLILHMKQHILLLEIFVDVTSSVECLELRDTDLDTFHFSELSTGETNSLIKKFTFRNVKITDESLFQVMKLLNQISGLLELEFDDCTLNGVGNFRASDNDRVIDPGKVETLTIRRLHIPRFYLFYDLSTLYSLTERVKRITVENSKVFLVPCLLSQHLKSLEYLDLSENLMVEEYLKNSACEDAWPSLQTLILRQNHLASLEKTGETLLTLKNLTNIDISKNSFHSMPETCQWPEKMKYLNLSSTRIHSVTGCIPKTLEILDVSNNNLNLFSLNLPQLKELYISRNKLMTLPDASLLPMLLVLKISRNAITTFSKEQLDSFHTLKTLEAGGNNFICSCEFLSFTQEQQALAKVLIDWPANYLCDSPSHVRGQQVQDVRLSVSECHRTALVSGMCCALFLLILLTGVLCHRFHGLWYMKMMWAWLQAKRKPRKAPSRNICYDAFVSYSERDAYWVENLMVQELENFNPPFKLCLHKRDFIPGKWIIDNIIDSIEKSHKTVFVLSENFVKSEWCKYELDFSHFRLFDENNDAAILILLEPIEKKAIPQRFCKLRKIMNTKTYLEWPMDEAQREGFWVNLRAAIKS
# T1 sequence (Q9Y2C9 32-796): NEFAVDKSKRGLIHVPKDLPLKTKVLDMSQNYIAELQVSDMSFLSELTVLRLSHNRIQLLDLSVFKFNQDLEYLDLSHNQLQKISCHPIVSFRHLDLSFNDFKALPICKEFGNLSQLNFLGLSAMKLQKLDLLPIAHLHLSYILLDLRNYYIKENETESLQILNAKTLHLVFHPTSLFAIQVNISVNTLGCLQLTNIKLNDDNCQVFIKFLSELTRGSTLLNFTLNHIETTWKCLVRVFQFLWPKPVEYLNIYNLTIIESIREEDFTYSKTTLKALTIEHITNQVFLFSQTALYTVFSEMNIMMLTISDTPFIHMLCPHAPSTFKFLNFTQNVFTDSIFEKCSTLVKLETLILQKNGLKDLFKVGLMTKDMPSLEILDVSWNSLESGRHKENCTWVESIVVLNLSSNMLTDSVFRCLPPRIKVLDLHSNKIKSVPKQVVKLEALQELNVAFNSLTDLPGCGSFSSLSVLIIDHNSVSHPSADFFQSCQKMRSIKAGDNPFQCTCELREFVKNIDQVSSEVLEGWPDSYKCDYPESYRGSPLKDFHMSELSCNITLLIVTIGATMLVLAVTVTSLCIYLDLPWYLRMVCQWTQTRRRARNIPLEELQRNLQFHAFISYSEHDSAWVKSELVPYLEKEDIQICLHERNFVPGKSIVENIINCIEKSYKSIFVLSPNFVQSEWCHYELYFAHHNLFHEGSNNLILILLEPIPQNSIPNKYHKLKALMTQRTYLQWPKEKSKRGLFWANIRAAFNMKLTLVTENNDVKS
smiles,measurement,setting,value
"CCCCCCCCCCC[C@@H](O)CC(=O)N[C@@H]1C(O)OC(CO[C@@H]2OC(CO)[C@@H](OP(=O)(O)O)[C@H](OC(=O)C[C@@H](CCCCCCCCCCC)OC(=O)CCCCCCCCC)[C@@H]2NC(=O)C[C@@H](CCCCCCCCCCC)OC(=O)CCCCCCCCC)[C@@H](O)[C@@H]1OC(=O)C[C@H](O)CCCCCCCCCCC (stereo partly drawn) [Compound IX, (3R)-((2R,3S,4R,5S)-3-((R)-3-(DECANOYLOXY)TETRADECANAMIDO)-2-(((3S,4R,5S)-3,6-DIHYDROXY-5-((R)-3-HYDROXYTETRADECANAMIDO)-4-((R)-3-HYDROXYTETRADECANOYLOXY)TETRAHYDRO-2H-PYRAN-2-YL)METHOXY)-6-(HYDROXYMETHYL)-5-(PHOSPHONOOXY)TETRAHYDRO-2H-PYRAN-4-YL) 3-(DECANOYLOXY)TETRADECANOATE]","ID83 antigen-specific IFN-γ cytokine responses (IFN-γ secreting cells per million of splenocytes, ELISPOT)","[1]; C57BL/6 mice, 8 μg ID83 + 10 μg adjuvant in stable emulsion, three immunizations at three-week intervals, three weeks after the third immunization",induced robust ID83 antigen-specific cytokine responses
same,type of antigen-specific immune response induced (conclusion),[1]; Compound IX in a stable oil formulation with ID83,induced predominantly antigen-specific immune responses of the cellular type (T cell) associated with the protective TH1 phenotype
same,induction of TLR2,TLR2 and TLR6,did not appear to be associated with induction of TLR2
same,TLR4 agonist activity,"TLR4, MD-2, and CD14; HEK 293 cells with TLR4, MD-2, CD14 and NF-kB reporter",clear TLR4 agonist activity
same,shape of profile with increasing concentration,"TLR4, MD-2, and CD14; serial dilutions",plateaus rapidly as concentrations are increased
same,immunostimulatory activity (induction of MIP-1-α and TNF-α),human whole blood cells,has immunostimulatory activity in primary human blood cells
